The values that follow come from patent US10975037B2 (priority 2018, dated 2021).

For orientation: inhibition means the drop in the measured response relative to a control, in per cent. Broadly, the IC50 is the concentration that inhibits the measured activity by half. The term Kd denotes the constant that tells how readily two partners part at equilibrium.

For assay [1], the target named is full-length human RORγt (Homo sapiens (Human), UniProt P51449). In words: RORγt (full-length human) reporter assay, conditions A or B, HEK293T cells. Format: cell-based. The note with it: for inhibition at 3 µM: 3 μM compound concentration (footnote *); for inhibition at 3 µM / inhibition at 0.67 µM / inhibition at 2 µM / inhibition at […]: read-out: RORγt (FL) Reporter Assay A or B, % inhibition; for inhibition at 2 µM: 2 μM compound concentration. The method, boiled down: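 After 16–20 h, dual firefly/Renilla luciferase luminescence was read. Firefly signal was normalized to DMSO and saturating reference compound, then to Renilla, and fitted for IC50; % inhibition is versus DMSO.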
full-length human RORγt, sequence (P51449 other isoform, or with tags, fused parts or gaps): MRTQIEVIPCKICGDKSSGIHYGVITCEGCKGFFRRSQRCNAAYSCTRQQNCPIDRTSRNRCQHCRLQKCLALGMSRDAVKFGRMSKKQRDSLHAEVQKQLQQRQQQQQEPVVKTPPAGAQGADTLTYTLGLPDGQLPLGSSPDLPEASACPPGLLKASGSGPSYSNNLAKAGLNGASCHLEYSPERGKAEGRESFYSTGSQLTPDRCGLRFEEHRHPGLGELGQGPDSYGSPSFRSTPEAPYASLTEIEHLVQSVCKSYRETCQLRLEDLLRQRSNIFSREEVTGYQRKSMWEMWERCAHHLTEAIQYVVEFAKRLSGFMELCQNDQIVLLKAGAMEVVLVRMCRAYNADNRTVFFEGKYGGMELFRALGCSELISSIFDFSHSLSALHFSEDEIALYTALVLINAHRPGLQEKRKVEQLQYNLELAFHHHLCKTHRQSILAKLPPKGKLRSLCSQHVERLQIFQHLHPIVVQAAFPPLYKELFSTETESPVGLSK
On the technique in general: A reporter such as luciferase makes a cellular process visible.

For assay [2], the system named is IL-17 production by CD4 T cells under conditions which favor Th17 differentiation. In words: Human Th17 assay (IL-17 production by CD4 T cells). Format: cell-based. The note with it: Homo sapiens, CD4+ T; read-out: Human Th17 Assay, IC50. As for the experimental part: The human Th17 assay tests the effect of RORγt modulatory compounds on IL-17 production by CD4 T cells under conditions which favor Th17 differentiation. Total CD4^+ T cells were isolated from the peripheral blood mononuclear cells (PBMC) of healthy donors using a CD4^+ T cell isolation kit II, following the manufacturer's instructions (Miltenyi Biotec). […] 50 μL of compound at titrated concentrations in DMSO were added into each well at final DMSO concentration at 0.2%. Cells were incubated for 1 hour, then 50 μL of Th17 cell differentiation medium was added to each well. […] Cells were cultured at 37° C. and 5% CO2 for 3 days. Supernatants were collected and the accumulated IL-17 in culture was measured by using MULTI-SPOT® Cytokine Plate following manufacture's instruction (Meso Scale Discovery). The plate was read using Sector Imager 6000, and IL-17 concentration was extrapolated from the standard curve. The IC50s were determined by GraphPad.

Assay [3] addresses human RORγt ligand binding domain (RORγt LBD) (Homo sapiens (Human), UniProt P51449). The assay is described as follows: RORγt ThermoFluor® assay (thermal shift binding). The note with it: read-out: ThermoFluor® Assay, Kd. The method, boiled down:
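Thermal shift with 0.065 mg/mL RORγt LBD and 60 μM 1,8-ANS in 100 mM Hepes pH 7.0, 10 mM NaCl, 2.5 mM GSH, 0.002% Tween-20.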

Setting [4] is: HEK-293T, 0.67 μM compound concentration (footnote ****).
The mark [5] stands for this setting: RORγt (FL) Reporter Assay A or B, IC50, HEK293T cells.
[6] abbreviates: HEK293T cells, read-out: RORγt (FL) Reporter Assay A or B, IC50.

Structures are written as SMILES. Where a name gives a salt, the structure may show the parent alone. Read-outs that look alike come from different tables or passages of the source. Marks after values point to notes of the source that are not given here.

human RORγt ligand binding domain (RORγt LBD), sequence (P51449 other isoform, or with tags, fused parts or gaps): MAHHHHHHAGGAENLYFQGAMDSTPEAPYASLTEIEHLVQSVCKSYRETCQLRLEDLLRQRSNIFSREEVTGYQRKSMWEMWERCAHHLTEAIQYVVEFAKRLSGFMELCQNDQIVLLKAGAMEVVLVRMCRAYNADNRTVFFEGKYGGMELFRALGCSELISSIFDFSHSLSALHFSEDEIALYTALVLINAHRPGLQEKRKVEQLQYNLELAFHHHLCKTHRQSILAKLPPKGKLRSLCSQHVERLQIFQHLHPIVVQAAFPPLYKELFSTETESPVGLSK

Regarding `CCn1nc(C(=O)NC[C@]2(N)CC[C@@H](S(C)(=O)=O)CC2)c(Cl)c1-c1ccc(CC(C)(C)C(F)(F)F)cc1OC(F)F` [Example 19, N-(((1s*,4s*)-1-Amino-4-(methylsulfonyl)cyclohexyl)methyl)-4-chloro-5-(2-(difluoromethoxy)-4-(3,3,3-trifluoro-2,2-dimethylpropyl)phenyl)-1-ethyl-1H-pyrazole-3-carboxamide 2,2,2-trifluoroacetic acid salt], the inhibition at 3 µM in assay [1] (HEK-293T) is 122%. Moreover, the IC50 in assay [2] worked out at 14 nM.
`CCn1nc(C(=O)NC[C@H]2CC[C@H](S(C)(=O)=O)CC2)c(Cl)c1-c1ccc(CC(C)(C)C(F)(F)F)cc1OC` [Example 44, 4-chloro-1-ethyl-5-(2-methoxy-4-(3,3,3-trifluoro-2,2-dimethylpropyl)phenyl)-N-(((1r,4r)-4-(methylsulfonyl)cyclohexyl)methyl)-1H-pyrazole-3-carboxamide]: the inhibition at 0.67 µM in assay [1] (setting [4]) came to 96%. Moreover, the IC50 in assay [2] was 5.2 nM.
For the molecule `CCn1nc(C(=O)NC[C@H]2CC[C@H](S(C)(=O)=O)CC2)c(Cl)c1-c1ccc(OCC(C)(F)F)cc1OC` [Example 214, 4-Chloro-5-(4-(2,2-difluoropropoxy)-2-methoxyphenyl)-1-ethyl-N-(((1r,4r)-4-(methylsulfonyl)cyclohexyl)methyl)-1H-pyrazole-3-carboxamide], the Kd in assay [3] is 39 nM. Further, the inhibition at 2 µM in assay [1] (HEK-293T) turned out to be 79%. Also, half-maximal inhibition in assay [1] (setting [5]) (IC50) required 84 nM.
The like results for `CCn1nc(C(=O)NC[C@H]2CC[C@H](S(C)(=O)=O)CC2)c(Cl)c1-c1ccc(OCC2(C)CC2)cc1OC` [Example 215, 4-Chloro-1-ethyl-5-(2-methoxy-4-((1-methylcyclopropyl)methoxy)phenyl)-N-(((1r,4r)-4-(methylsulfonyl)cyclohexyl)methyl)-1H-pyrazole-3-carboxamide] were, in that order, 6.6 nM, 80% and 56 nM.
Regarding `CCn1nc(C(=O)NC[C@H]2CC[C@H](S(C)(=O)=O)CC2)c(Cl)c1-c1ccc(NC(C(F)(F)F)C(F)(F)F)cc1OC` [Example 216, 4-Chloro-1-ethyl-5-(4-((1,1,1,3,33-hexafluoropropan-2-yl)amino)-2-methoxyphenyl)-N-(((1r,4r)-4-(methylsulfonyl)cyclohexyl)methyl)-1H-pyrazole-3-carboxamide], the Kd in assay [3] is 0.97 nM. Also, the inhibition at 2 µM in assay [1] (HEK-293T) was 107%. For the same molecule, the IC50 in assay [1] (setting [5]) was 28 nM.
For `CCn1nc(C(=O)NC[C@]2(O)CC[C@@H](S(C)(=O)=O)CC2)c(C(F)(F)F)c1-c1ccc(N[C@H](C)C(F)(F)F)cc1OC` [Example 217, 1-Ethyl-N-(((1s,4S)-1-hydroxy-4-(methylsulfonyl)cyclohexyl)methyl)-5-(2-methoxy-4-(((R)-1,1,1-trifluoropropan-2-yl)amino)phenyl)-4-(trifluoromethyl)-1H-pyrazole-3-carboxamide], in assay [3], the dissociation constant (Kd) stood at 17 nM. For the same molecule, in assay [1] (1 μM compound concentration (footnote ***)), the “RORγt (FL) Reporter Assay A or B, % inhibition” value is 104*** %. The IC50 in assay [1] (setting [6]) stood at 13 nM.
With `CCn1nc(C(=O)NC[C@H]2CC[C@H](S(C)(=O)=O)CC2)c(C(F)(F)F)c1-c1ccc(N[C@H](C)C(F)(F)F)cc1OC` [Example 218, 1-Ethyl-5-(2-methoxy-4-(((R)-1,1,1-trifluoropropan-2-yl)amino)phenyl)-N-(((1r,4R)-4-(methylsulfonyl)cyclohexyl)methyl)-4-(trifluoromethyl)-1H-pyrazole-3-carboxamide], the Kd in assay [3] was found to be 6.3 nM. Moreover, the “RORγt (FL) Reporter Assay A or B, % inhibition @ 6 μM” value in assay [1] (6 μM compound concentration) worked out at 105%. Also, the concentration for half-maximal inhibition (IC50) in assay [1] (setting [6]) is 61 nM.
With `CCn1nc(C(=O)NC[C@H]2CC[C@H](S(C)(=O)=O)CC2)c(Cl)c1-c1ccc(OC2CCC(F)(F)CC2)cc1OC` [Example 219, 4-Chloro-5-(4-((4,4-difluorocyclohexyl)oxy)-2-methoxyphenyl)-1-ethyl-N-(((1r,4r)-4-(methylsulfonyl)cyclohexyl)methyl)-1H-pyrazole-3-carboxamide], in assay [3], the Kd turned out to be 9.9 nM. For the same molecule, the inhibition at 0.67 µM in assay [1] (HEK-293T) is 98%. Besides, half-maximal inhibition in assay [1] (setting [5]) (IC50) required 30 nM.
With `CCn1nc(C(=O)NC[C@]2(O)CC[C@H](S(C)(=O)=O)CC2)c(Cl)c1-c1ccc(N[C@H](C)C(F)(F)F)cc1OC` [Example 220, 4-Chloro-1-ethyl-N-(((1r,4R)-1-hydroxy-4-(methylsulfonyl)cyclohexyl)methyl)-5-(2-methoxy-4-(((R)-1,1,1-trifluoropropan-2-yl)amino)phenyl)-1H-pyrazole-3-carboxamide], the Kd in assay [3] is 430 nM. In assay [1] (6 μM compound concentration), the “RORγt (FL) Reporter Assay A or B, % inhibition @ 6 μM” value came to 90%. Further, the IC50 in assay [1] (setting [6]) is 1100 nM.
Take `CCn1nc(C(=O)NC[C@]2(O)CC[C@@H](S(C)(=O)=O)CC2)c(Cl)c1-c1ccc(CCC(F)(F)F)cc1OC(F)F` [Example 221, 4-Chloro-5-(2-(difluoromethoxy)-4-(3,3,3-trifluoropropyl)phenyl)-1-ethyl-N-(((1s,4s)-1-hydroxy-4-(methylsulfonyl)cyclohexyl)methyl)-1H-pyrazole-3-carboxamide]: the Kd in assay [3] amounted to 2.5 nM. Further, the inhibition at 3 µM in assay [1] (HEK-293T) was 90%. 9.3 nM corresponded to half-maximal inhibition in assay [1] (setting [5]) (IC50).
Take `CCn1nc(C(=O)NC[C@]2(O)CC[C@@H](S(C)(=O)=O)CC2)c(C)c1-c1ccc(CCC(F)(F)F)cc1OC(F)F` [Example 223, 5-(2-(Difluoromethoxy)-4-(3,3,3-trifluoropropyl)phenyl)-1-ethyl-N-(((1s,4s)-1-hydroxy-4-(methylsulfonyl)cyclohexyl)methyl)-4-methyl-1H-pyrazole-3-carboxamide]: the Kd in assay [3] came out at 10 nM. The inhibition at […] in assay [1] (HEK-293T, 0.33 μM compound concentration (footnote *****)) turned out to be 68%. Inhibition in assay [1] (setting [5]) was half-maximal at 2.3 nM (IC50).
For the molecule `CCn1nc(C(=O)NC[C@H]2CC[C@H](S(C)(=O)=O)CC2)c(C)c1-c1ccc(CCC(F)(F)F)cc1OC(F)F` [Example 224, 5-(2-(Difluoromethoxy)-4-(3,3,3-trifluoropropyl)phenyl)-1-ethyl-4-methyl-N-(((1r,4r)-4-(methylsulfonyl)cyclohexyl)methyl)-1H-pyrazole-3-carboxamide], the dissociation constant (Kd) in assay [3] came out at 2.4 nM. For the same molecule, in assay [1] (HEK-293T, 0.11 μM compound concentration (footnote ********)), the inhibition at […] turned out to be 95%. In assay [1] (setting [5]), this molecule returned an IC50 of 0.44 nM.
With `CCn1nc(C(=O)NC[C@]2(O)CC[C@@H](S(C)(=O)=O)CC2)c(C)c1-c1ccc(CCC(F)(F)F)cc1OC` [Example 225, 1-Ethyl-N-(((1s,4s)-1-hydroxy-4-(methylsulfonyl)cyclohexyl)methyl)-5-(2-methoxy-4-(3,3,3-trifluoropropyl)phenyl)-4-methyl-1H-pyrazole-3-carboxamide], in assay [3], the Kd turned out to be 26 nM. For the same molecule, the inhibition at 2 µM in assay [1] (HEK-293T) worked out at 76%. Also, in assay [1] (setting [5]), the IC50 came out at 93 nM.
Regarding `CCn1nc(C(=O)NC[C@H]2CC[C@H](S(C)(=O)=O)CC2)c(C)c1-c1ccc(CCC(F)(F)F)cc1OC` [Example 226, 1-Ethyl-5-(2-methoxy-4-(3,3,3-trifluoropropyl)phenyl)-4-methyl-N-(((1r,4r)-4-(methylsulfonyl)cyclohexyl)methyl)-1H-pyrazole-3-carboxamide], the Kd in assay [3] was 12 nM. Moreover, the inhibition at 0.67 µM in assay [1] (setting [4]) was determined as 71%. The same molecule registered an IC50 in assay [1] (setting [5]) of 38 nM.
In the case of `CCn1nc(C(=O)NC[C@H]2CC[C@H](S(C)(=O)=O)CC2)c(C)c1-c1ccc(N[C@H](C)C(F)(F)F)cc1OC` [Example 228, 1-Ethyl-5-(2-methoxy-4-(((R)-1,1,1-trifluoropropan-2-yl)amino)phenyl)-4-methyl-N-(((1r,4R)-4-(methylsulfonyl)cyclohexyl)methyl)-1H-pyrazole-3-carboxamide], the Kd in assay [3] was 12 nM. Besides, the inhibition at 6 µM in assay [1] (HEK-293T, read-out: RORγt (FL) Reporter Assay A or B, % inhibition @ 6 μM, 6 μM compound concentration) worked out at 99%. Besides, in assay [1] (setting [5]), the IC50 was found to be 29 nM.
Consider `CC(C)(Cc1ccc(-c2c(Cl)c(C(=O)NC[C@]3(O)CC[C@@H](S(C)(=O)=O)CC3)nn2CCCC#N)c(OC(F)F)c1)C(F)(F)F` [Example 229, 4-Chloro-1-(3-cyanopropyl)-5-(2-(difluoromethoxy)-4-(3,3,3-trifluoro-2,2-dimethylpropyl)phenyl)-N-(((1s,4s)-1-hydroxy-4-(methylsulfonyl)cyclohexyl)methyl)-1H-pyrazole-3-carboxamide], for which the Kd in assay [3] was 3.1 nM. The inhibition at 3 µM in assay [1] (HEK-293T) came out at 78%. The same molecule displayed a half-inhibitory concentration (IC50) in assay [1] (setting [5]) of 9 nM.
